In patent US10669272B2, “Substituted naphthyridinone compounds useful as T cell activators” (BRISTOL-MYERS SQUIBB COMPANY, priority 2018, dated 2020):
Like-named read-outs stand apart in the source and are kept apart here.

Experiments:
human DGKα = target: T1, human DGKα (Homo sapiens, UniProt P23743); assay: DGKα LIPGLO assay (extruded liposome substrate), in vitro DGK inhibition; type: biochemical; conditions: liposome (LIPGLO) assay; read-out: DGKa LIPGLO IC50
T1 construct: TVMV protease cleavage site (C); Hexa-His (C); made in house; host or cells: Sf9 insect cells (baculovirus, Bac-to-Bac)
T1 sequence (P23743 with tags, fused parts or gaps): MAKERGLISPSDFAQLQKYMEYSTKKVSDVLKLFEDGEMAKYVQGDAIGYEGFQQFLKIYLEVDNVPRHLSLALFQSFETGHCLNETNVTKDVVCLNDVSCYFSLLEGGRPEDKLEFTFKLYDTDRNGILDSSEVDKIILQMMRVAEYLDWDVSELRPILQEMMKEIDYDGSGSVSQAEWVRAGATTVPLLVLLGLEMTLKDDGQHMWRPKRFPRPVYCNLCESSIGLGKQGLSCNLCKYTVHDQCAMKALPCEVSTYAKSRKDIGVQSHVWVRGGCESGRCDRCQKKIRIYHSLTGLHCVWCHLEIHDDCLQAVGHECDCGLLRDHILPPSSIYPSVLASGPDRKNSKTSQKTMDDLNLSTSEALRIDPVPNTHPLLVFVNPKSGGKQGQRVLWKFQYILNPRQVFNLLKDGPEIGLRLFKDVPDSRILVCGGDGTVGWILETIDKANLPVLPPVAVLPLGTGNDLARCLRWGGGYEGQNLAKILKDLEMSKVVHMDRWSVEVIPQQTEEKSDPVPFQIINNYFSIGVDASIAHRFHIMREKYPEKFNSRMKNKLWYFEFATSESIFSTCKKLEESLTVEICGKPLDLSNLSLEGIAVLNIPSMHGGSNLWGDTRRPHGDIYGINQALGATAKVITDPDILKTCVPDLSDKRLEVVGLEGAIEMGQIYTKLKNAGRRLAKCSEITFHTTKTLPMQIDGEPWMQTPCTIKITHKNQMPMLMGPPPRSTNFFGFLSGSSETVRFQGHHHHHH

Human venous whole blood = assay: Human whole blood IFN-γ assay; type: cell-based; conditions: human whole blood, normalized to 3 μM reference compound with anti-CD3 plus anti-CD28 as 100% activation, read-out: INFg Whole Blood Normalized Agonist EC50;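 further: blood from healthy donors exposed to compound for 1 h before stimulation with anti-CD3 and anti-CD28 at 1 µg/mL each, IFN-γ quantified in supernatant by AlphaLISA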
Experimental: Human Whole Blood IFN-γ Assay
Human venous whole blood (22.5 μL per well), obtained from healthy donors, was pre-treated with compounds for one hour at 37° C. in a humidified 95% air/5% CO2 incubator. The blood was stimulated with 2.5 μL anti-human CD3 and anti-CD28 mAb at a final concentration of 1 μg/mL each for 24 hours at 37° C. IFN-γ in the supernatants was measured using AlphLISA kit (Cat # AL217).

human DGKζ = target: T2, human DGKζ (Homo sapiens, UniProt Q13574); assay: DGKζ LIPGLO assay (extruded liposome substrate), in vitro DGK inhibition; type: biochemical; conditions: liposome (LIPGLO) assay; read-out: DGKz LIPGLO IC50
T2 construct: TVMV protease cleavage site (C); Hexa-His (C); made in house; host or cells: Sf9 insect cells (baculovirus, Bac-to-Bac)
T2 sequence (Q13574 with tags, fused parts or gaps isoform Q13574-4): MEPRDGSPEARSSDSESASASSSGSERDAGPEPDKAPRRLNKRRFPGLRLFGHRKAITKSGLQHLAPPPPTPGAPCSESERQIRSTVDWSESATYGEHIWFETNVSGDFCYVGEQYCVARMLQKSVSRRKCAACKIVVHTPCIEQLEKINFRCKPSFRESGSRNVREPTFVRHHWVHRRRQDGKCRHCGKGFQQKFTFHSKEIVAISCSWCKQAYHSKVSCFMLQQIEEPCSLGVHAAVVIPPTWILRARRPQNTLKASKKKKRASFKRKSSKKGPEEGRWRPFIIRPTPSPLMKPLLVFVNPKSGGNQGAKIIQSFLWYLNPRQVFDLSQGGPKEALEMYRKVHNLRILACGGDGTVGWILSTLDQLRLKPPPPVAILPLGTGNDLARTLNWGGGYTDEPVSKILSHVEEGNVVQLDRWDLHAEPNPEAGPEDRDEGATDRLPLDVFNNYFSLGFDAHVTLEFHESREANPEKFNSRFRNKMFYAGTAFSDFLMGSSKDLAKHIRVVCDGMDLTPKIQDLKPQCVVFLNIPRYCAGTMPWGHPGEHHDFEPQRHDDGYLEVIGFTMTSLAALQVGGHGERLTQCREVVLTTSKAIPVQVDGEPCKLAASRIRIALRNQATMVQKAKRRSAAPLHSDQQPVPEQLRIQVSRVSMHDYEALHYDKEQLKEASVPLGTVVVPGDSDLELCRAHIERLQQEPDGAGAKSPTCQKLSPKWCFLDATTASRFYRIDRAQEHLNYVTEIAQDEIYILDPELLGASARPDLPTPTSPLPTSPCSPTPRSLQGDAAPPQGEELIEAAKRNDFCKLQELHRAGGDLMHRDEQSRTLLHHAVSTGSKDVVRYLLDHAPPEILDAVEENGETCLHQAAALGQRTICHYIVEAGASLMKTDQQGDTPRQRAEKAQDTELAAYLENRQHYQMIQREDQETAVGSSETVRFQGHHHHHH

Row | SMILES | IC50 (human DGKα) [µM] | EC50 (Human venous whole blood; Homo sapiens, 24 h) [µM] | IC50 (human DGKζ) [µM] | EC50 (Human venous whole blood) [µM]
1 | C[C@@H]1CN(c2c(C#N)c(=O)n(C)c3ccc(C#N)nc23)CCN1C(c1ccc(F)cc1)c1nccs1 (single isomer, unassigned) [Example 1024] | 0.44 | 1.2 | 2.2 | 
2 | C[C@@H]1CN(c2c(C#N)c(=O)n(C)c3ccc(C#N)nc23)CCN1C(c1ccc(F)cc1)c1nccs1 (single isomer, unassigned) [Example 1025] | 1.2 |  | 19 | 2
3 | C[C@@H]1CN(c2c(C#N)c(=O)n(C)c3ccc(C#N)nc23)CCN1C(c1ccc(F)cc1)c1cn(C)cn1 (single isomer, unassigned) [Example 1026] | 20 |  | 65 | 20
4 | C[C@@H]1CN(c2c(C#N)c(=O)n(C)c3ccc(C#N)nc23)CCN1C(c1ccc(F)cc1)c1cn(C)cn1 (single isomer, unassigned) [Example 1027] | 29 |  | 2.2 | 7.3
5 | C[C@@H]1CN(c2c(C#N)c(=O)n(C)c3ccc(C#N)nc23)CCN1C(c1ccc(F)cc1)c1nc(C2CC2)no1 (single isomer, unassigned) [Example 1029] | 0.45 |  | 2.1 | 3.6
6 | C[C@@H]1CN(c2c(C#N)c(=O)n(C)c3ccc(C#N)nc23)CCN1C(c1ccc(F)cc1)c1nc(C2CC2)no1 (single isomer, unassigned) [Example 1030] | 2.2 |  | 1.1 | 0.67
7 | CC[C@H]1CN(C(c2cccc(F)c2)c2ccc(F)cn2)[C@H](CC)CN1c1cc(=O)n(C)c2ccc(C#N)nc12 (single isomer, unassigned) [Example 1041] | 0.036 | 0.23 | 0.043 | 
8 | CC[C@H]1CN(C(c2cccc(F)c2)c2ccc(F)cn2)[C@H](CC)CN1c1cc(=O)n(C)c2ccc(C#N)nc12 (single isomer, unassigned) [Example 1042] | 0.17 |  | 0.063 | 0.13
9 | CC[C@H]1CN(C(c2ccc(F)cc2)c2ccccn2)[C@H](CC)CN1c1cc(=O)n(C)c2ccc(C#N)nc12 (single isomer, unassigned) [Example 1043] | 0.049 | 0.39 | 0.29 | 
10 | CC[C@H]1CN(C(c2ccc(F)cc2)c2cccc(C(F)(F)F)n2)[C@H](CC)CN1c1cc(=O)n(C)c2ccc(C#N)nc12 (single isomer, unassigned) [Example 1045] | 0.56 | 0.17 | 0.12 | 
11 | CC[C@H]1CN(C(c2ccc(F)cc2)c2cccc(C(F)(F)F)n2)[C@H](CC)CN1c1cc(=O)n(C)c2ccc(C#N)nc12 (single isomer, unassigned) [Example 1046] | 0.09 |  | 0.054 | 0.14
12 | CC[C@H]1CN(C(C)c2ccc(F)cc2)[C@H](CC)CN1c1cc(=O)n(C)c2ccc(C#N)nc12 (single isomer, unassigned) [Example 1049] | 0.015 |  | 0.042 | 0.13
13 | CC[C@H]1CN(C(C)c2ccc(F)cc2)[C@H](CC)CN1c1cc(=O)n(C)c2ccc(C#N)nc12 (single isomer, unassigned) [Example 1050] | 0.51 |  | 0.9 | 4.4
14 | CC[C@H]1CN(C(C)c2ccc(C(F)(F)F)cc2)[C@H](CC)CN1c1cc(=O)n(C)c2ccc(C#N)nc12 (single isomer, unassigned) [Example 1051] | 0.27 |  | 0.21 | 0.042
15 | CC[C@H]1CN(C(C)c2ccc(C(F)(F)F)cc2)[C@H](CC)CN1c1cc(=O)n(C)c2ccc(C#N)nc12 (single isomer, unassigned) [Example 1052] | 2.5 |  | 2 | 0.19
16 | CC[C@H]1CN(C(C)c2ccc(OC(F)(F)F)cc2)[C@H](CC)CN1c1cc(=O)n(C)c2ccc(C#N)nc12 (single isomer, unassigned) [Example 1053] | 0.021 |  | 0.14 | 0.21
17 | CC[C@H]1CN(C(C)c2ccc(OC(F)(F)F)cc2)[C@H](CC)CN1c1cc(=O)n(C)c2ccc(C#N)nc12 (single isomer, unassigned) [Example 1054] | 0.47 |  | 0.59 | 2.7
18 | CC[C@H]1CN(C(C)c2ccc(F)cc2F)[C@H](CC)CN1c1cc(=O)n(C)c2ccc(C#N)nc12 (single isomer, unassigned) [Example 1055] | 0.017 |  | 0.016 | 0.016
19 | CC[C@H]1CN(C(C)c2ccc(F)cc2F)[C@H](CC)CN1c1cc(=O)n(C)c2ccc(C#N)nc12 (single isomer, unassigned) [Example 1056] | 0.88 |  | 0.59 | 0.58
20 | CCC(c1ccc(OC(F)(F)F)cc1)N1C[C@H](CC)N(c2cc(=O)n(C)c3ccc(C#N)nc23)C[C@H]1CC (single isomer, unassigned) [Example 1060] | 0.34 | 2.5 | 0.63 | 

Row | SMILES | IC50 (human DGKα) [µM] | EC50 (Human venous whole blood; Homo sapiens, 24 h) [µM] | IC50 (human DGKζ) [µM] | EC50 (Human venous whole blood) [µM]
21 | CC[C@H]1CN(C(c2ccc(F)cc2)c2cocn2)[C@H](CC)CN1c1cc(=O)n(C)c2ccc(C#N)nc12 (single isomer, unassigned) [Example 1068] | 0.043 |  | 0.092 | 0.25
22 | CC[C@H]1CN(C(c2ccc(F)cc2)c2cocn2)[C@H](CC)CN1c1cc(=O)n(C)c2ccc(C#N)nc12 (single isomer, unassigned) [Example 1069] | 0.06 |  | 0.91 | 2.1
23 | CC[C@H]1CN(C(c2ccc(F)cc2)c2cscn2)[C@H](CC)CN1c1cc(=O)n(C)c2ccc(C#N)nc12 (single isomer, unassigned) [Example 1070] | 0.013 |  | 0.18 | 1.1
24 | CC[C@H]1CN(C(c2ccc(F)cc2)c2cscn2)[C@H](CC)CN1c1cc(=O)n(C)c2ccc(C#N)nc12 (single isomer, unassigned) [Example 1071] | 0.014 |  | 0.044 | 0.19
25 | CC[C@H]1CN(C(c2ccc(F)cc2)c2ccon2)[C@H](CC)CN1c1cc(=O)n(C)c2ccc(C#N)nc12 (single isomer, unassigned) [Example 1072] | 0.1 |  | 0.75 | 0.77
26 | CC[C@H]1CN(C(c2ccc(F)cc2)c2ccon2)[C@H](CC)CN1c1cc(=O)n(C)c2ccc(C#N)nc12 (single isomer, unassigned) [Example 1073] | 0.033 |  | 0.12 | 0.21
27 | CC[C@H]1CN(C(c2ccc(F)cc2)c2cc(C3CC3)on2)[C@H](CC)CN1c1cc(=O)n(C)c2ccc(C#N)nc12 (single isomer, unassigned) [Example 1074] | 0.044 | 0.042 | 0.047 | 
28 | CC[C@H]1CN(C(c2ccc(F)cc2)c2cc(C3CC3)on2)[C@H](CC)CN1c1cc(=O)n(C)c2ccc(C#N)nc12 (single isomer, unassigned) [Example 1075] | 0.011 |  | 0.027 | 0.037
29 | CC[C@@H]1CN(c2cc(=O)n(C)c3ccc(C#N)nc23)[C@@H](C)CN1C(C)c1ccc(F)cc1 (single isomer, unassigned) [Example 1083] | 0.037 |  | 0.079 | 0.075
30 | CC[C@@H]1CN(c2cc(=O)n(C)c3ccc(C#N)nc23)[C@@H](C)CN1C(C)c1ccc(F)cc1 (single isomer, unassigned) [Example 1084] | 1.7 |  | 5 | 2.6
31 | CC[C@@H]1CN(c2cc(=O)n(C)c3ccc(C#N)nc23)[C@@H](C)CN1C(C)c1ccc(C(F)(F)F)cc1F (single isomer, unassigned) [Example 1085] | 0.36 |  | 0.032 | 0.16
32 | CC[C@@H]1CN(c2cc(=O)n(C)c3ccc(C#N)nc23)[C@@H](C)CN1C(C)c1ccc(C(F)(F)F)cc1F (single isomer, unassigned) [Example 1086] | 6.2 |  | 2.1 | 2.5
33 | CC[C@@H]1CN(c2cc(=O)n(C)c3ccc(C#N)nc23)[C@@H](C)CN1C(C)c1ccc(F)c(F)c1 (single isomer, unassigned) [Example 1091] | 0.23 |  | 0.11 | 0.14
34 | CC[C@@H]1CN(c2cc(=O)n(C)c3ccc(C#N)nc23)[C@@H](C)CN1C(C)c1ccc(F)c(F)c1 (single isomer, unassigned) [Example 1092] | 3.7 |  | 4 | 3.2
35 | CC[C@@H]1CN(c2cc(=O)n(C)c3ccc(C#N)nc23)[C@@H](C)CN1C(C)c1ccc(C(F)(F)F)cc1 (single isomer, unassigned) [Example 1093] | 0.25 | 0.13 | 0.18 | 
36 | CC[C@@H]1CN(c2cc(=O)n(C)c3ccc(C#N)nc23)[C@@H](C)CN1C(c1ccc(F)cc1)c1ccc(C(F)(F)F)cn1 (single isomer, unassigned) [Example 1106] | 0.27 |  | 0.12 | 0.52
37 | CC[C@@H]1CN(c2cc(=O)n(C)c3ccc(C#N)nc23)[C@@H](C)CN1C(c1ccc(F)cc1)c1ccc(C(F)(F)F)cn1 (single isomer, unassigned) [Example 1107] | 0.065 |  | 0.13 | 0.077
38 | CC[C@@H]1CN(c2cc(=O)n(C)c3ccc(C#N)nc23)[C@@H](C)CN1C(c1cccc(F)c1)c1ccc(F)cn1 (single isomer, unassigned) [Example 1109] | 0.73 | 0.92 | 0.47 | 
39 | CC[C@@H]1CN(c2cc(=O)n(C)c3ccc(C#N)nc23)[C@@H](C)CN1C(c1ccc(F)cc1)c1ccon1 (single isomer, unassigned) [Example 1114] | 0.056 |  | 0.4 | 0.1
